Legend:
[1] = tested on: Chinese Hamster Ovary Cells; assay: In vitro mammalian chromosomal aberration assay; assay type: cell-based; conditions: for doses with cytotoxicity: non-activated 20-h exposure
Experimental: To further evaluate the potential genotoxicity of SRP-001 and determine the validity of the in vitro findings, a second in vivo assay, a GLP-compliant Comet assay, was conducted in accordance with ICH S2(R1) Guidance on Genotoxicity Testing and Data Interpretation for Pharmaceuticals Intended for Human Use. […] SRP-001 was tested to evaluate its mutagenic potential by measuring its ability to induce reverse mutations at selected loci of several strains of Salmonella typhimurium (S. typhimurium) and at the tryptophan locus of Escherichia coli (E. coli) strain WP2 uvrA in the presence and absence of an exogenous metabolic activation system (Bioreliance, Rockville, MD USA). Dimethyl sulfoxide (10% DMSO) was used as the vehicle. The dose levels tested in the preliminary toxicity assay were 6.67, 10.0, 33.3, 66.7, 100, 333, 667, 1000, 3333, and 5000 μg per plate. No precipitate was observed. […] The dose levels tested in the mutagenicity assay were 100, 333, 667, 1000, 3333, and 5000 μg per plate. […] In the preliminary toxicity assay, the doses tested ranged from 0.0405 to 405 μg/mL (1 mM), which was the limit dose for this assay (Bioreliance, Rockville, MD USA).
The doses selected for evaluation of chromosome aberrations were 150, 300, and 405 μg/mL for the non-activated and S9-activated 4-h exposure groups; and 10, 40, and 80 μg/mL for the non-activated 20-h exposure group. […] The induction of structural aberrations was outside the 95% control limit of the historical negative control data of 0.00% to 2.79%. […] However, the induction of structural aberrations was within the 95% control limit of the historical negative control data of 0.00% to 4.28%. […] The induction of structural aberrations was outside the 95% control limit of the historical negative control data of 0.00% to 2.68%.

Male rats = assay: Rat micronucleus in vivo study
Experimental: The induction of numerical aberrations was within the 95% control limit of the historical negative control data. […] Approximately 48 h after the second dose administration, peripheral blood was collected for flow cytometric analysis of micronuclei. There was no significant increase in the incidence of micronuclei in the test article-dosed animals compared to the concurrent vehicle control. The vehicle control value was compatible with the historical range of % micronucleated reticulocytes (MnRETs). There was a statistically significant increase in MnRETs in the positive control compared to the concurrent vehicle control. […] The vehicle control was 10% Labrasol, 10% DMSO, and 80% PEG400. The positive control for the Comet assay, ethyl methanesulfonate (EMS), was orally administered at 200 mg/kg/dose for two consecutive days at a dose volume of 10 mL/kg/dose. […] Animals were euthanized 3-4 h after the last dose administration. The liver and glandular stomach were collected and processed for comet evaluation.

Beagle dogs = assay: Single oral dose (capsule) toxicity and pharmacokinetic study in Beagle dogs (non-GLP); assay type: in vivo
Experimental: 2) A Single Oral Dose Toxicity and Pharmacokinetic Study of SRP-001 in Beagle Dogs (non-GLP) SRP-001 was prepared into capsules for oral administration. Three experimentally non-naïve Beagle dogs, at least 7 months old and weighing 7.7 to 10 kg prior to treatment initiation, were administered a single dose of 300 mg/kg SRP-001 (Calvert Labs/Altasciences, Scott Township, PA USA). On the day of dosing, animals were observed prior to dose administration, approximately 1-3 h post-dose, and once on day 2. Body weights were recorded for all animals prior to dose administration for the preparation of the capsules. Blood for bioanalytical evaluation was collected at selected timepoints on day 1. Following the completion of the study, surviving animals were not euthanized. They were returned to the Calvert colony for an appropriate washout period before possible use in a subsequent study. […] Plasma samples were collected at seven different time points post-dose.

Sprague-Dawley rats [2] = assay: 28-day oral toxicity study in Sprague-Dawley rats with 14-day recovery (GLP); assay type: in vivo
Text: 5) A 28-day Oral Toxicity Study of SRP-001 in Sprague-Dawley Rats with 14-day Recovery (GLP study) We next set out to determine the toxicity and toxicokinetics of SRP-001 when administered via oral gavage once daily to Sprague-Dawley Rats for 28 d (Calvert Labs/Altasciences, Scott Township, PA USA). The study also assessed the reversibility of any toxicity observed with a 14-d recovery period. One hundred thirty-six experimentally naïve Sprague-Dawley rats (68 males and 68 females), 8 weeks old and weighing 167-295 g for males and females at the outset of the study, were assigned to toxicology treatment groups (Groups 1-4) or toxicokinetic groups (Groups 5-7). For toxicology groups, 10 animals/sex/dose were administered 0, 300, 900, or 1500 mg/kg/d SRP-001. An additional 5 animals/sex/dose in Groups 1 and 4 were targeted for a 14-d recovery period and euthanized on day 43. For toxicokinetic groups, 6 animals/sex/dose were administered 300, 900, or 1500 mg/kg/d SRP-001. Mortality/morbidity was performed twice daily and once prior to scheduled sacrifice. Animals in Groups 1-4 were observed prior to each dose administration and 1-3 h post-dose. Animals in Groups 1-4 were also observed once daily on non-dosing days and once prior to scheduled sacrifice. Body weights were recorded prior to randomization/selection, prior to dose administration on day 1, and weekly thereafter. Food consumption was determined weekly for animals in Groups 1-4. Ophthalmology examinations were performed before treatment initiation and during the last week of dosing for animals in Groups 1-4. The functional observational battery was assessed for 5 animals/sex/group in Groups 1-4 once prior to dosing and at 1-2 h following dose administration on day 1. Blood for evaluation of hematology, coagulation, and clinical chemistry and urine for urinalysis was collected from animals in Groups 1-4 on day 29 or day 43. Blood for toxicokinetic evaluation was collected from animals in Groups 5-7 at selected timepoints on days 1 and 28. All surviving animals in Groups 1-4 were sacrificed on day 29 or day 43. Selected tissues were harvested at necropsy, selected organs weighed, and selected tissues evaluated microscopically.

Sprague-Dawley rats [3] = assay: CFA inflammatory pain / von Frey with electronic detection (eVF); assay type: in vivo, rat; conditions: behavioral assays

## CCN(CC)C(=O)c1ccccc1S(=O)(=O)NCC(=O)Nc1ccc(O)cc1 [SRP-001, N,N-diethyl-2-[[2-(4-hydroxyanilino)-2-oxo-ethyl]sulfamoyl]benzamide]
[1]
  induction of numerical chromosomal aberrations, conclusion: negative for the induction of numerical chromosomal aberrations
[1]; Chinese hamster, 20 h, 80 μg/mL
  structural aberrations: 3.7%
[1]; chromosome aberration assay, non-activated 4-h exposure
  dose with cytotoxicity: 405 µg/mL
[1]; chromosome aberration assay
  doses with cytotoxicity: ≥ 70 µg/mL
[1]; preliminary toxicity assay
  doses with cytotoxicity: ≥ 122 µg/mL
Male rats; 500, 1,000 and 2,000 mg/kg/d oral, two days
  incidence of micronuclei / clastogenicity: negative (non-clastogenic)
Male rats; treatment groups
  % RETs: Statistically significant decreases in % RETs
Beagle dogs; dog, in vivo, 300 mg/kg
  tolerability: well tolerated
Beagle dogs; single 300 mg/kg, capsules
  bioavailability: poor bioavailability
Sprague-Dawley rats [2]; both, Sprague-Dawley, rat, in vivo, 28 d
  doses with minimal to mild centrilobular hepatocellular hypertrophy: ≥ 300 mg/kg/day
Sprague-Dawley rats [2]; both, Sprague-Dawley, rat, in vivo, po, 28 d
  doses without treatment-related adverse effects: up to 1500 mg/kg/day
Sprague-Dawley rats [2]; once daily for 28 d
  no-adverse effect level (NOAEL): 1500 mg/kg
Sprague-Dawley rats [2]; rat, in vivo
  hematology and serum chemistry changes: increases in globulin, albumin, and total protein and decreases in aspartate aminotransferase, alkaline phosphatase, and mean corpuscular hemoglobin concentration
Sprague-Dawley rats [3]
  locomotor activity or motor incoordination: no overt alterations
